Where two headings read alike, the source gives them in different places.
Columns and labels:
Format in all cases: cell-based
[1] = tested on: Human esophageal cancer cells OE33; test: Tumor cell growth inhibitory activity (CCK-8), OE33
Protocol: (§1) Human esophageal cancer cells OE33 (human breast adenocarcinoma cells SK-BR-3, or human gastric cancer cells NCI-N87) was cultured in RPMI1640 (Cellmax) supplemented with 10% fetal bovine serum (Cellmax). Cells in the exponential growth phase were diluted to a concentration of 1×10^5 cells/mL by culture medium and added to 96-well cell culture plates at 100 μL per well, then returned back and incubated overnight in a 37° C. incubator with 5% CO2. On the following day, the compounds were diluted to concentrations of 10000 nM, 2000 nM, 400 nM, 80 nM, 16 nM, 3.2 nM, 0.64 nM, and 0.13 nM by culture medium and the diluted compounds were added to the 96-well cell culture plates at 2 μL per well, with three replicate wells for each concentration. Negative control and blank control groups without addition of compounds were added with 2 μL of the dilution liquid per well. After the addition of the compounds, the plates were returned back to the 37° C. incubator with 5% CO2 to continue the incubation for 72 h. After the incubation, the cell culture plates were removed, and the culture medium was aspirated using a pipette. Then, 100 μL of culture medium containing 10% CCK-8 was added to each well, and the plates were incubated at 37° C. for 3 h. After the incubation, the plates were removed, kept in the dark, and placed in an ELISA plate. Absorbance was measured at 630 nm as the reference wavelength and 450 nm as the test wavelength. The IC50 values (Table 2) were calculated using the four-parameter logistic regression method in GraphPad.

[2] = tested on: human breast adenocarcinoma cells SK-BR-3; test: Tumor cell growth inhibitory activity (CCK-8), SK-BR-3
Protocol: as §1

[3] = tested on: human gastric cancer cells NCI-N87; test: Tumor cell growth inhibitory activity (CCK-8), NCI-N87
Protocol: as §1

NCI-H1975 = test: Tumor cell growth inhibitory activity, NCI-H1975
MDA-MB-231 = test: Tumor cell growth inhibitory activity, MDA-MB-231; conditions: MDA-MB-231 cells, read-out: IC50 (nM) for inhibiting the growth of tumor cells, MDA-MB-231
[4] = Homo sapiens, OE33 cells, 72 h incubation, CCK-8, read-out: IC50 (nM) for inhibiting the growth of tumor cells, OE33
[5] = Homo sapiens, SK-BR-3 cells, 72 h incubation, CCK-8, read-out: IC50 (nM) for inhibiting the growth of tumor cells, SK-BR-3
[6] = Homo sapiens, NCI-N87 cells, 72 h incubation, CCK-8, read-out: IC50 (nM) for inhibiting the growth of tumor cells, NCI-N87
[7] = Homo sapiens, NCI-H1975 cells, read-out: IC50 (nM) for inhibiting the growth of tumor cells, NCI-H1975
[8] = Homo sapiens, OE33, 72 h, read-out: IC50 (nM) for inhibiting the growth of tumor cells, OE33, OE33 cells, 72 h incubation, CCK-8
[9] = Homo sapiens, SK-BR-3, 72 h, read-out: IC50 (nM) for inhibiting the growth of tumor cells, SK-BR-3, SK-BR-3 cells, 72 h incubation, CCK-8
[10] = Homo sapiens, NCI-N87, 72 h, read-out: IC50 (nM) for inhibiting the growth of tumor cells, NCI-N87, NCI-N87 cells, 72 h incubation, CCK-8
[11] = Homo sapiens, NCI-H1975, read-out: IC50 (nM) for inhibiting the growth of tumor cells, NCI-H1975, NCI-H1975 cells

Compound	IC50 [1, 4]	IC50 [2, 5]	IC50 [3, 6]	IC50 (NCI-H1975; [7])	IC50 (MDA-MB-231; Homo sapiens)	also measured
CC[C@@]1(O)C(=O)OCc2c1cc1n(c2=O)Cc2c-1nc1cc(F)c(C)cc1c2CCNC(C)=O [Compound 1, 7-(2-Acetylamino)ethyl-10-methyl-11-fluorocamptothecin]	21.3 nM	19.5 nM	3.78 nM	361 nM	350 nM	
CC[C@@]1(O)C(=O)OCc2c1cc1n(c2=O)Cc2c-1nc1cc(F)c(C)cc1c2CCNC(=O)C(F)F [Compound 2, 7-(2-Difluoroacetylamino)ethyl-10-methyl-11-fluorocamptothecin]	9.02 nM	16.6 nM	1.9 nM	101 nM		
CC[C@@]1(O)C(=O)OCc2c1cc1n(c2=O)Cc2c-1nc1cc(F)c(C)cc1c2CCNC1CCOCC1 [Compound 4, 7-(2-(Tetrahydropyran-4-yl)amino)ethyl-10-methyl-11-fluorocamptothecin]	4.39 nM	6.12 nM	2.48 nM	247 nM	321 nM	
CC[C@@]1(O)C(=O)OCc2c1cc1n(c2=O)Cc2c-1nc1cc(F)c(C)cc1c2CCN1CCNCC1 [Compound 5, 7-(2-(piperazin-4-yl))ethyl-10-methyl-11-fluorocamptothecin]	44 nM	60.4 nM	5.66 nM	77.3 nM		
CC[C@@]1(O)C(=O)OCc2c1cc1n(c2=O)Cc2c-1nc1cc(F)c(C)cc1c2CCNC1CCC(O)CC1 (stereo partly drawn) [Compound 6, 7-(2-(4-Hydroxycyclohexyl)amino)ethyl-10-methyl-11-fluorocamptothecin]	24.4 nM	28.7 nM	3.85 nM	298 nM		
CC[C@@]1(O)C(=O)OCc2c1cc1n(c2=O)Cc2c-1nc1cc(F)c(C)cc1c2CCNC1CCC(OC)CC1 (stereo partly drawn) [Compound 7, 7-(2-(4-Methoxycyclohexyl)amino)ethyl-10-methyl-11-fluorocamptothecin]	6.46 nM	22.2 nM	2.02 nM	92.2 nM	147 nM	
CC[C@@]1(O)C(=O)OCc2c1cc1n(c2=O)Cc2c-1nc1cc(F)c(C)cc1c2CCNCCN=[N+]=[N-] [Compound 8, 7-(2-(2-Azidoethyl)amino)ethyl-10-methyl-11-fluorocamptothecin]	3.26 nM	4.92 nM	0.68 nM	18.5 nM	80.4 nM	
CC[C@@]1(O)C(=O)OCc2c1cc1n(c2=O)Cc2c-1nc1cc(F)c(C)cc1c2CCN[C@@H](C)CCO [Compound 9, 7-(2-((S)-4-Hydroxybutan-2-yl)amino)ethyl-10-methyl-11-fluorocamptothecin]	6.59 nM	14.1 nM	1.6 nM	121 nM	173 nM	
CC[C@@]1(O)C(=O)OCc2c1cc1n(c2=O)Cc2c-1nc1cc(F)c(F)cc1c2CCNCCO [Compound 10, 7-(2-Hydroxyethylamino)ethyl-10,11-difluorocamptothecin]	58.3 nM	76.5 nM	8.17 nM			
CC[C@@]1(O)C(=O)OCc2c1cc1n(c2=O)Cc2c-1nc1cc(F)c(F)cc1c2CCN[C@@H](C)COC [Compound 11, 7-(2-((S)-2-Methoxyisopropyl)amino)ethyl-10,11-difluorocamptothecin]	7.26 nM	19.2 nM	1.67 nM	12.6 nM	157 nM	
CC[C@@]1(O)C(=O)OCc2c1cc1n(c2=O)Cc2c-1nc1cc(F)c(F)cc1c2CCNC1CCC(O)CC1 (stereo partly drawn) [Compound 12, 7-(2-(4-Hydroxycyclohexyl)amino)ethyl-10,11-difluorocamptothecin]	43 nM	41.7 nM	5.47 nM	85.6 nM		
CC[C@@]1(O)C(=O)OCc2c1cc1n(c2=O)Cc2c-1nc1cc(F)c(F)cc1c2CCNC1CCOCC1 [Compound 13, 7-(2-(Tetrahydropyran-4-yl)amino)ethyl-10,11-difluorocamptothecin]	1.96 nM	5.63 nM	0.93 nM	9.83 nM	72.7 nM	
CC[C@@]1(O)C(=O)OCc2c1cc1n(c2=O)Cc2c-1nc1cc(F)c(F)cc1c2CCNC1CCC(OC)CC1 (stereo partly drawn) [Compound 14, 7-(2-(4-Methoxycyclohexyl)amino)ethyl-10,11-difluorocamptothecin]	26.1 nM	36.1 nM	5.3 nM	383 nM	460 nM	
CC[C@@]1(O)C(=O)OCc2c1cc1n(c2=O)Cc2c-1nc1cc(F)c(F)cc1c2CCNCCN=[N+]=[N-] [Compound 15, 7-(2-(2-Azidoethyl)amino)ethyl-10,11-difluorocamptothecin]	32.3 nM	7.5 nM	1.02 nM	115 nM		
CC[C@@]1(O)C(=O)OCc2c1cc1n(c2=O)Cc2c-1nc1cc3c(cc1c2CCNCCN=[N+]=[N-])OCO3 [Compound 16, 7-(2-(2-Azidoethyl)amino)ethyl-10,11-methylenedioxycamptothecin]						IC50 ([1]; read-out: IC50 (nM) for inhibiting the growth of tumor cells, OE33, OE33 cells, 72 h incubation, CCK-8): 3.13 nM; IC50 ([2]; read-out: IC50 (nM) for inhibiting the growth of tumor cells, SK-BR-3, SK-BR-3 cells, 72 h incubation, CCK-8): 8.96 nM; IC50 ([3]; read-out: IC50 (nM) for inhibiting the growth of tumor cells, NCI-N87, NCI-N87 cells, 72 h incubation, CCK-8): 1.01 nM; IC50 (NCI-H1975; read-out: IC50 (nM) for inhibiting the growth of tumor cells, NCI-H1975, NCI-H1975 cells): 9.22 nM; IC50 (MDA-MB-231): 116 nM
CC[C@@]1(O)C(=O)OCc2c1cc1n(c2=O)Cc2c-1nc1cc3c(cc1c2CCNC1CCC(O)CC1)OCO3 (stereo partly drawn) [Compound 26, 7-(2-(4-Hydroxycyclohexyl)amino)ethyl-10,11-methylenedioxycamptothecin]						IC50 [1, 8]: 129 nM; IC50 [2, 9]: 218 nM; IC50 [3, 10]: 150 nM
CC[C@@]1(O)C(=O)OCc2c1cc1n(c2=O)Cc2c-1nc1cc3c(cc1c2CCN[C@@H](C)CO)OCO3 [Compound 28, 7-(2-((S)-Hydroxyisopropyl)amino)ethyl-10,11-methylenedioxycamptothecin]						IC50 [1, 8]: 49.6 nM; IC50 [2, 9]: 77.2 nM; IC50 [3, 10]: 61.5 nM; IC50 (NCI-H1975; [11]): 119 nM
CC[C@@]1(O)C(=O)OCc2c1cc1n(c2=O)Cc2c-1nc1cc3c(cc1c2CCN(CCOC)C(=O)CO)OCO3 [Compound 32, 7-(2-(N-Hydroxyacetyl(2-methoxyethyl))amino)ethyl-10,11-methylenedioxycamptothecin]	11.6 nM	6.48 nM	2.09 nM			
CC[C@@]1(O)C(=O)OCc2c1cc1n(c2=O)Cc2c-1nc1cc3c(cc1c2CCN(CC(F)F)C(=O)CO)OCO3 [Compound 33, 7-(2-(N-Hydroxyacetyl(2-difluoroethyl))amino)ethyl-10,11-methylenedioxycamptothecin]						IC50 [1, 8]: 11.9 nM; IC50 [2, 9]: 8.93 nM; IC50 [3, 10]: 2.63 nM
CC[C@@]1(O)C(=O)OCc2c1cc1n(c2=O)Cc2c-1nc1cc3c(cc1c2CCNC(=O)CN=[N+]=[N-])OCO3 [Compound 37, 7-(2-Azidoacetylamino)ethyl-10,11-methylenedioxycamptothecin]						IC50 [1, 8]: 25.2 nM; IC50 [2, 9]: 41.3 nM; IC50 [3, 10]: 5.57 nM; IC50 (NCI-H1975; [11]): 229 nM
CC[C@@]1(O)C(=O)OCc2c1cc1n(c2=O)Cc2c-1nc1cc3c(cc1c2CCNS(C)(=O)=O)OCO3 [Compound 38, 7-(2-Methanesulfonamido)ethyl-10,11-methylenedioxycamptothecin]						IC50 [1, 8]: 199 nM; IC50 [2, 9]: 332 nM; IC50 [3, 10]: 48 nM; IC50 (NCI-H1975; [11]): 282 nM
CC[C@@]1(O)C(=O)OCc2c1cc1n(c2=O)Cc2c-1nc1cc3c(cc1c2CCNc1ncn[nH]1)OCO3 [Compound 41, 7-(2-(1,2,4-Triazol-5-ylamino))ethyl-10,11-methylenedioxycamptothecin]						IC50 [1, 8]: 24.2 nM; IC50 [2, 9]: 89.9 nM; IC50 [3, 10]: 33.9 nM; IC50 (NCI-H1975; [11]): 136 nM

From patent publication US20260042774A1, “CAMPTOTHECIN-7-ETHYLAMINE DERIVATIVE, PREPARATION METHOD THEREFOR, AND USE THEREOF” (HANGZHOU ADCORIS BIOPHARMA CO., LTD, priority 2022, published 2026)
